In ChEMBL document CHEMBL3992539, “Discovery of a series of N-(5-(quinolin-6-yl)pyridin-3-yl)benzenesulfonamides as PI3K/mTOR dual inhibitors” (Eur J Med Chem, 2017):
The source made the active and inactive calls. The rule behind the calls is not given here.

What was measured:
[1] = target: PI3-kinase p110-alpha/p85-alpha (Homo sapiens, UniProt P42336); test: Inhibition of PI3K p110alpha/p85alpha (unknown origin) using PIP2 as substrate after 1 hr by luminescent kinase-Glo assay; format: protein-complex assay
PC-3 = test: Antiproliferative activity against human PC3 cells after 72 hrs by SRB assay; format: functional, cell-based; conditions: PC-3, 72 h
HCT-116 = test: Antiproliferative activity against human HCT116 cells after 72 hrs by SRB assay; format: functional, cell-based; conditions: HCT-116, 72 h
PI3K p110 beta/p85 alpha = PI3K p110 beta/p85 alpha (Homo sapiens, UniProt P42338); test: Inhibition of recombinant full length human N-terminal His6-tagged PI3K p110beta/p85alpha expressed in baculovirus infected Sf21 cells using PIP2 as substrate after 1 hr by ADP-Glo kinase assay
[2] = target: Phosphatidylinositol 4,5-bisphosphate 3-kinase catalytic subunit gamma isoform (Homo sapiens, UniProt P48736); test: Inhibition of recombinant full length His-tagged human PI3K p110gamma expressed in baculovirus expression system using PIP2 as substrate after 1 hr by ADP-Glo kinase assay
[3] = target: T1, Phosphatidylinositol 4,5-bisphosphate 3-kinase catalytic subunit delta isoform (Homo sapiens, UniProt O00329); test: Inhibition of PI3K p110delta (unknown origin) using PIP2 as substrate after 1 hr by ADP-Glo kinase assay
T1 sequence (O00329 whole entry): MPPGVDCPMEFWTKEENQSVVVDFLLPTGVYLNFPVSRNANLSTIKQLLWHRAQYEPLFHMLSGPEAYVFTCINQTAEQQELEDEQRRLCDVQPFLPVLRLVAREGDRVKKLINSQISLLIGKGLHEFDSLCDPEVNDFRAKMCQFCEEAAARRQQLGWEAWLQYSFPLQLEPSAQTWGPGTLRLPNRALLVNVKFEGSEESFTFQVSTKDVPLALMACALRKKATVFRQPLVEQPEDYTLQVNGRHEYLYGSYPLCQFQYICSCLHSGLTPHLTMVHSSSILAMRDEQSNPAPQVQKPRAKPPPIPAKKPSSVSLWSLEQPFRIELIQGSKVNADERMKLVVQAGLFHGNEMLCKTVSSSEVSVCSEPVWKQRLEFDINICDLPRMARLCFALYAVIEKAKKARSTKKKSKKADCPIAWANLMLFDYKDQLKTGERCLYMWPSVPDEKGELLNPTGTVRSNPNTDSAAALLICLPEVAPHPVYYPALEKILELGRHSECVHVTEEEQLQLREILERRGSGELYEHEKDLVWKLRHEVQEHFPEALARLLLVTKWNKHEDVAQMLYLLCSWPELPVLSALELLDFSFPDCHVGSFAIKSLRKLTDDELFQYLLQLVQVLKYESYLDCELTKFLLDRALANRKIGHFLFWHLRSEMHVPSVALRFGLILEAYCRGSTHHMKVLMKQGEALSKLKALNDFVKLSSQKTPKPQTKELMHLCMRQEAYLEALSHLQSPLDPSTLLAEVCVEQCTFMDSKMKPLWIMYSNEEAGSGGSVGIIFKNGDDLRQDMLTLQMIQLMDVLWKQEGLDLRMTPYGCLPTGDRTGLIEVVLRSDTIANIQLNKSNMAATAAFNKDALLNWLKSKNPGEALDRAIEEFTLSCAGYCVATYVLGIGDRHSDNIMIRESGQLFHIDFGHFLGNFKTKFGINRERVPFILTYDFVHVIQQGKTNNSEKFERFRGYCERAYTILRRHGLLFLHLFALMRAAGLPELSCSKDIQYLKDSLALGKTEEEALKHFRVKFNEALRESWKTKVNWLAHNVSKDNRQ

Homo sapiens = organism: Homo sapiens; test: Inhibition of PI3K in PTEN null human PC3 cells assessed as reduction in Akt phosphorylation at Ser-473 residue at 100 nM after 3 hrs by Western blot method; format: cell-based
[4] = target: Serine/threonine-protein kinase mTOR (Homo sapiens, UniProt P42345); test: Inhibition of recombinant human N-terminal FLAG-tagged mTOR (1362-end residues) using ULight-4E-BP1 peptide substrate after 1 hr in presence of ATP by Lance Ultra assay
[5] = Plasma clearance in mouse at 5 mg/kg, po by UPLC-MS/MS analysis; format: ADME, organism-based
Mus musculus = test: Volume of distribution in mouse at 5 mg/kg, po by UPLC-MS/MS analysis; format: ADME, organism-based; conditions: in vivo
[6] = Mean residence time in mouse at 5 mg/kg, po by UPLC-MS/MS analysis; format: ADME, organism-based; conditions: in vivo
[7] = AUCt in mouse at 5 mg/kg, po by UPLC-MS/MS analysis; format: ADME, organism-based; conditions: in vivo
[8] = Cmax in mouse at 5 mg/kg, po by UPLC-MS/MS analysis; format: ADME, organism-based; set-up: dose 5 mg/kg, route oral; conditions: in vivo
[9] = Terminal half life in mouse at 5 mg/kg, po by UPLC-MS/MS analysis; format: ADME, organism-based; conditions: in vivo, read-out: beta t1/2 (converted)

Sequence of PI3-kinase p110-alpha/p85-alpha (P27986 whole entry): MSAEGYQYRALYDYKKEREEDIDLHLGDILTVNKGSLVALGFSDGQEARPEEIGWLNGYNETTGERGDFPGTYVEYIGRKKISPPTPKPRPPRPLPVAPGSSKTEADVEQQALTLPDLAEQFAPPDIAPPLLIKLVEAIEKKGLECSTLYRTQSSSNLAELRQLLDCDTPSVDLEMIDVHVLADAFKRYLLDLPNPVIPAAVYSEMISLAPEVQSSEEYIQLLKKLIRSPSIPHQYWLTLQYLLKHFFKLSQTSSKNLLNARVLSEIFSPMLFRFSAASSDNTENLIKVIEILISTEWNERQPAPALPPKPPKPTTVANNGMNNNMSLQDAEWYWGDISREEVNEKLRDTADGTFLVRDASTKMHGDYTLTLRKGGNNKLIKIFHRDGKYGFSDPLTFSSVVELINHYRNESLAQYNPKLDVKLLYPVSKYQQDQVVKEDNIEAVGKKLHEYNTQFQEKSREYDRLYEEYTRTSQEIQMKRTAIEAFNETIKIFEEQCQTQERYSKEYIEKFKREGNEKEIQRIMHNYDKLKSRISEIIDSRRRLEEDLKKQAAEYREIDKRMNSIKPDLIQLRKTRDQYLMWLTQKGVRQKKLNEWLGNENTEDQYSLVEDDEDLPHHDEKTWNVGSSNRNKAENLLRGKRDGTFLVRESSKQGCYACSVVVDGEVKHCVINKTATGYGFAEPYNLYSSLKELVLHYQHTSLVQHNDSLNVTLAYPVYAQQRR
Sequence of PI3-kinase p110-alpha/p85-alpha (P42336 whole entry): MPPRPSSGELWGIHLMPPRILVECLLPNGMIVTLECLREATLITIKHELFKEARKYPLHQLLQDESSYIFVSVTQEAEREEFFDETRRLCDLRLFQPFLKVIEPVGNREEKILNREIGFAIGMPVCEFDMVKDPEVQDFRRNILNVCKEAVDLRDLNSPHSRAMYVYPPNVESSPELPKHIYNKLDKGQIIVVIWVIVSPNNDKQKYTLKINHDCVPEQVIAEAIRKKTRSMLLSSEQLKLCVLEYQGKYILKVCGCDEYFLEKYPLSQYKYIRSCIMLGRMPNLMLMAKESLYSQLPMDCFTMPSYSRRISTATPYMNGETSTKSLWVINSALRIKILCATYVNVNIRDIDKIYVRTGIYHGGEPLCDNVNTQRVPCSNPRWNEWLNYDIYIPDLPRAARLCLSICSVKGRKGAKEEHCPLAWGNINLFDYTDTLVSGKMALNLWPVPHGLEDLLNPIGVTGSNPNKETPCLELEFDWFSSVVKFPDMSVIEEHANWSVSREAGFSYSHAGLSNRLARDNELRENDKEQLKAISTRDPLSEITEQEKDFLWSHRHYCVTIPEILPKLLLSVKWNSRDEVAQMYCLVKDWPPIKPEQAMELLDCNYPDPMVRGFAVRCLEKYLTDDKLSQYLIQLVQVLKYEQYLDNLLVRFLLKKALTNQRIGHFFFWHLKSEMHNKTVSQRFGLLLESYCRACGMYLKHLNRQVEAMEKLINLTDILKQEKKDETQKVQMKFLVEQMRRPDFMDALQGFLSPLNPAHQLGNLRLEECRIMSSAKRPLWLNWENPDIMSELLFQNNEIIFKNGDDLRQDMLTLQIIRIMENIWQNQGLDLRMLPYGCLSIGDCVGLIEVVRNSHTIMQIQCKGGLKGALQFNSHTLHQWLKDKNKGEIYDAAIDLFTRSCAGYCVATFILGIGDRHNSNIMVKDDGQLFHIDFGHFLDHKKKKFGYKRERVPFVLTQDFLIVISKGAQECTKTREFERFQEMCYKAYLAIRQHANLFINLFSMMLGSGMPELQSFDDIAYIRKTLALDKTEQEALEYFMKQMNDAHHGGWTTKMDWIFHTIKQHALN
Sequence of PI3K p110 beta/p85 alpha (P27986 whole entry, canonical isoform): as the sequence (P27986 whole entry) above
Sequence of PI3K p110 beta/p85 alpha (P42338 whole entry, canonical isoform): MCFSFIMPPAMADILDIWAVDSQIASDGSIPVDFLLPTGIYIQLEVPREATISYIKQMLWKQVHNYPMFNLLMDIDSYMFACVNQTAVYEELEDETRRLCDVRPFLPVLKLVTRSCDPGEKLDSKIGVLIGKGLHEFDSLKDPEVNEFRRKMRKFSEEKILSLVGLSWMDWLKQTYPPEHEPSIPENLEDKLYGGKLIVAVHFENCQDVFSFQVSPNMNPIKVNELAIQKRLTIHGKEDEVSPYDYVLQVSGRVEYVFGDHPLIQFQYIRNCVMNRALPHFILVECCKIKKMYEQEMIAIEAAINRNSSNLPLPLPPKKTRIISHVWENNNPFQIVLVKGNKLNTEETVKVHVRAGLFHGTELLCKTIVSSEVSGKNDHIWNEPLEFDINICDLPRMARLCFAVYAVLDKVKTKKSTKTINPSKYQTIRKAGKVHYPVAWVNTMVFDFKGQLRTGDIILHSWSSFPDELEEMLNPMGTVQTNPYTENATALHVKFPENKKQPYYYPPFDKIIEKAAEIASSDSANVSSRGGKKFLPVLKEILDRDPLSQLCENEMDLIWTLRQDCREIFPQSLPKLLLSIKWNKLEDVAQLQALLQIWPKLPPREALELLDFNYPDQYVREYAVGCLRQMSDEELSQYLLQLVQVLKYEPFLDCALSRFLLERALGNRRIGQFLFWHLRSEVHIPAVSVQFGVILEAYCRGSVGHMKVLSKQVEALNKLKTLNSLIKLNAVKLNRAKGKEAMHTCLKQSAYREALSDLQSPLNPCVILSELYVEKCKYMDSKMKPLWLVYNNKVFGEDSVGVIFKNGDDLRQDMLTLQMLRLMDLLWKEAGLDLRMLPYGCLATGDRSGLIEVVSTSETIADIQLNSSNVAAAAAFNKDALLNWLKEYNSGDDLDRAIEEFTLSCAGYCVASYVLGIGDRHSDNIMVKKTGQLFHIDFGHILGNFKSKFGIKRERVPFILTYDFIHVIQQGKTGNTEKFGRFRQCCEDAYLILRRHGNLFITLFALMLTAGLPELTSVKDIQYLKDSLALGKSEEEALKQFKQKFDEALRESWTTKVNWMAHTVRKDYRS
Sequence of Phosphatidylinositol 4,5-bisphosphate 3-kinase catalytic subunit gamma isoform (P48736 whole entry, canonical isoform): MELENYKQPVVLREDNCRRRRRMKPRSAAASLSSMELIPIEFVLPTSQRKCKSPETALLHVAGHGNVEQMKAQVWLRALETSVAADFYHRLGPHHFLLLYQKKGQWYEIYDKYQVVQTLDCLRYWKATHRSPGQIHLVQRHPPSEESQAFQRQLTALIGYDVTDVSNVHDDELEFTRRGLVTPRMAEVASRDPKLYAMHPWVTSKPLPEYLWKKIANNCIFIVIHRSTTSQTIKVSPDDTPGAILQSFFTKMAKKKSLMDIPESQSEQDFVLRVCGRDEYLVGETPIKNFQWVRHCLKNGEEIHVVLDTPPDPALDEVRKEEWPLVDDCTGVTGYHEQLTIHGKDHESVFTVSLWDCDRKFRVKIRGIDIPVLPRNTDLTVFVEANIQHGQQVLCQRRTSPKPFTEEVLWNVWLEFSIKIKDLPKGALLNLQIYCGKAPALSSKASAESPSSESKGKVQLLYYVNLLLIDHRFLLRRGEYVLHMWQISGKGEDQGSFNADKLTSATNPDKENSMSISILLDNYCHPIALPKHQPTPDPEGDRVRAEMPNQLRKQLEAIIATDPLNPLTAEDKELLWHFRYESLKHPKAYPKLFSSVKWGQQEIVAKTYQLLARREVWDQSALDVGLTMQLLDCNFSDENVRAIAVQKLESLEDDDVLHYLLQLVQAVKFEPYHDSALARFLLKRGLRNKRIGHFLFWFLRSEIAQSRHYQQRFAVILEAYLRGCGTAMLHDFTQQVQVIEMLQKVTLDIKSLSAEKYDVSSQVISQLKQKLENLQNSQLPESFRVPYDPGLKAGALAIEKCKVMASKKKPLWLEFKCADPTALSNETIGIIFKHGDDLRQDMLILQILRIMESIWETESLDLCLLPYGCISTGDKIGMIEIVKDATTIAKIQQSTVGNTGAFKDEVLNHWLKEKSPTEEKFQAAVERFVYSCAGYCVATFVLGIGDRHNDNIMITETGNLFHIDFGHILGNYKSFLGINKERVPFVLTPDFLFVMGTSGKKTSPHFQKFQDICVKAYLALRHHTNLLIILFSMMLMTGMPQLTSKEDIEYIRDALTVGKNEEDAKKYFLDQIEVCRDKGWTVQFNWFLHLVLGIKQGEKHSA

Row | SMILES | IC50 [1] | IC50 (PC-3) | IC50 (HCT-116) | also measured
1 | COc1ncc(-c2ccc3ncc(NC(=O)CN4CCOCC4)c(OC)c3c2)cc1NS(=O)(=O)c1ccc(F)cc1 | 2.7 nM | 1830 nM | 2830 nM | –
2 | COc1ncc(-c2ccc3ncc(NC(=O)C4CCCCC4)c(OC)c3c2)cc1NS(=O)(=O)c1ccc(F)cc1F | 15 nM | 6630 nM | 4610 nM | –
3 | Cn1c(=O)n(-c2ccc(C(C)(C)C#N)cc2)c2c3cc(-c4cnc5ccccc5c4)ccc3ncc21 [DACTOLISIB] | – | 510 nM | 220 nM | –
4 | COc1ncc(-c2ccc3ncc(NC(=O)CN4CCOCC4)c(OC)c3c2)cc1NS(=O)(=O)c1ccc(F)cc1F | 1.7 nM | 80 nM | 470 nM | IC50 (PI3K p110 beta/p85 alpha): 3.9 nM; IC50 [2]: 8.4 nM; IC50 [3]: 0.87 nM; inhibition (Homo sapiens): Active; IC50 [4]: 10 nM; CL/F [5]: 7 mL/min/kg; Vd (Mus musculus): 1 L/kg; MRT [6]: 2.7 h; AUC(0-t) [7]: 11700 ng·h/mL; Cmax [8]: 2950 ng/mL; half-life [9]: 1.6 h
5 | COc1ncc(-c2ccc3ncc(NC(=O)CN4CCOCC4)c(OC)c3c2)cc1NS(=O)(=O)c1ccc(C(F)(F)F)cc1 | 2.26 nM | 3750 nM | 2520 nM | –
6 | COc1ncc(-c2ccc3ncc(NCC4CCCCC4)c(OC)c3c2)cc1NS(=O)(=O)c1ccc(F)cc1F | 210 nM | 9000 nM | 13600 nM | –
7 | COc1ncc(-c2ccc3ncc(NC(=O)CN4CCCC(O)C4)c(OC)c3c2)cc1NS(=O)(=O)c1ccc(F)cc1F (stereo unspecified) | 1.5 nM | 1340 nM | 1770 nM | –
8 | COc1ncc(-c2ccc3ncc(NC(C)=O)c(OC)c3c2)cc1NS(=O)(=O)c1ccc(F)cc1F | 8.4 nM | 1240 nM | 550 nM | –
9 | COc1ncc(-c2ccc3ncc(NCc4ccccc4)c(OC)c3c2)cc1NS(=O)(=O)c1ccc(F)cc1F | 36 nM | 4320 nM | 16800 nM | –
10 | CCNc1cnc2ccc(-c3cnc(OC)c(NS(=O)(=O)c4ccc(F)cc4F)c3)cc2c1OC | 9.4 nM | 4820 nM | 1850 nM | –
11 | COc1ccc(CNc2cnc3ccc(-c4cnc(OC)c(NS(=O)(=O)c5ccc(F)cc5F)c4)cc3c2OC)cc1 | 27 nM | 4520 nM | 10200 nM | –
12 | COc1ncc(-c2ccc3ncc(NCC4CCN(C(C)=O)CC4)c(OC)c3c2)cc1NS(=O)(=O)c1ccc(F)cc1F | 3.7 nM | 2570 nM | 1930 nM | –
13 | COc1ncc(-c2ccc3ncc(NCC4CCN(S(C)(=O)=O)CC4)c(OC)c3c2)cc1NS(=O)(=O)c1ccc(F)cc1F | 4.7 nM | 2850 nM | 1360 nM | –
14 | COc1ncc(-c2ccc3ncc(NCc4ccc(C(F)(F)F)cc4)c(OC)c3c2)cc1NS(=O)(=O)c1ccc(F)cc1F | 30 nM | 2880 nM | 3220 nM | –
15 | COc1ncc(-c2ccc3ncc(NC(=O)CN(C)CCO)c(OC)c3c2)cc1NS(=O)(=O)c1ccc(F)cc1F | 1.3 nM | 2000 nM | 1790 nM | –
16 | COc1ncc(-c2ccc3ncc(NC(=O)CN4CCN(C)CC4)c(OC)c3c2)cc1NS(=O)(=O)c1ccc(F)cc1F | 3.2 nM | 1730 nM | 1540 nM | –
17 | COc1ncc(-c2ccc3ncc(NC(=O)CN4CCC(O)CC4)c(OC)c3c2)cc1NS(=O)(=O)c1ccc(F)cc1F | 2 nM | 3210 nM | 1980 nM | –
